From BigSolDB 2.1

With O=C(O)COc1ccc(Cl)cc1Cl as the molecule, how does the solubility (mole fraction) (in isobutyl acetate, 303.15 K) read?
The solubility (mole fraction) was 0.0747.

And the solubility (mole fraction) (in isobutyl acetate, 308.15 K)?
The solubility (mole fraction) was 0.0846.

What about the solubility (mole fraction) (in isobutyl acetate, 313.15 K) of the same molecule?
Its solubility (mole fraction) is 0.0958.

And the solubility (mole fraction) (in isobutyl acetate, 318.15 K)?
Its solubility (mole fraction) is 0.11.

And the solubility (mole fraction) (in isobutyl acetate, 323.15 K)?
Its solubility (mole fraction) is 0.128.

What about the solubility (mole fraction) (in isopropanol, 278.15 K) of the same molecule?
Its solubility (mole fraction) is 0.0424.

What about the solubility (mole fraction) (in isopropanol, 283.15 K) of the same molecule?
Its solubility (mole fraction) is 0.0525.

What about the solubility (mole fraction) (in isopropanol, 288.15 K) of the same molecule?
The solubility (mole fraction) was 0.0646.

And the solubility (mole fraction) (in isopropanol, 293.15 K)?
The solubility (mole fraction) was 0.0783.

And the solubility (mole fraction) (in isopropanol, 298.15 K)?
Its solubility (mole fraction) is 0.0942.

What about the solubility (mole fraction) (in isopropanol, 303.15 K) of the same molecule?
Its solubility (mole fraction) is 0.113.

And the solubility (mole fraction) (in isopropanol, 308.15 K)?
The solubility (mole fraction) was 0.132.

What about the solubility (mole fraction) (in isopropanol, 313.15 K) of the same molecule?
Its solubility (mole fraction) is 0.153.

And the solubility (mole fraction) (in isopropanol, 318.15 K)?
Its solubility (mole fraction) is 0.176.

What about the solubility (mole fraction) (in isopropanol, 323.15 K) of the same molecule?
The solubility (mole fraction) was 0.201.

And the solubility (mole fraction) (in methyl acetate, 278.15 K)?
The solubility (mole fraction) was 0.0602.

And the solubility (mole fraction) (in methyl acetate, 283.15 K)?
The solubility (mole fraction) was 0.0685.

What about the solubility (mole fraction) (in methyl acetate, 288.15 K) of the same molecule?
The solubility (mole fraction) was 0.0761.

What about the solubility (mole fraction) (in methyl acetate, 293.15 K) of the same molecule?
Its solubility (mole fraction) is 0.0846.

And the solubility (mole fraction) (in methyl acetate, 298.15 K)?
The solubility (mole fraction) was 0.0976.

What about the solubility (mole fraction) (in methyl acetate, 303.15 K) of the same molecule?
The solubility (mole fraction) was 0.106.

What about the solubility (mole fraction) (in methyl acetate, 308.15 K) of the same molecule?
The solubility (mole fraction) was 0.119.

What about the solubility (mole fraction) (in methyl acetate, 313.15 K) of the same molecule?
Its solubility (mole fraction) is 0.131.

What about the solubility (mole fraction) (in methyl acetate, 318.15 K) of the same molecule?
Its solubility (mole fraction) is 0.144.

What about the solubility (mole fraction) (in methyl acetate, 323.15 K) of the same molecule?
Its solubility (mole fraction) is 0.16.

And the solubility (mole fraction) (in n-butanol, 278.15 K)?
The solubility (mole fraction) was 0.0521.

And the solubility (mole fraction) (in n-butanol, 283.15 K)?
Its solubility (mole fraction) is 0.0644.

And the solubility (mole fraction) (in n-butanol, 288.15 K)?
Its solubility (mole fraction) is 0.079.

And the solubility (mole fraction) (in n-butanol, 293.15 K)?
The solubility (mole fraction) was 0.0986.

What about the solubility (mole fraction) (in n-butanol, 298.15 K) of the same molecule?
The solubility (mole fraction) was 0.127.

And the solubility (mole fraction) (in n-butanol, 303.15 K)?
Its solubility (mole fraction) is 0.146.

And the solubility (mole fraction) (in n-butanol, 308.15 K)?
The solubility (mole fraction) was 0.17.

And the solubility (mole fraction) (in n-butanol, 313.15 K)?
Its solubility (mole fraction) is 0.198.

What about the solubility (mole fraction) (in n-butanol, 318.15 K) of the same molecule?
Its solubility (mole fraction) is 0.231.

And the solubility (mole fraction) (in n-butanol, 323.15 K)?
The solubility (mole fraction) was 0.27.

And the solubility (mole fraction) (in n-butyl acetate, 278.15 K)?
The solubility (mole fraction) was 0.0486.

What about the solubility (mole fraction) (in n-butyl acetate, 283.15 K) of the same molecule?
Its solubility (mole fraction) is 0.0535.

And the solubility (mole fraction) (in n-butyl acetate, 288.15 K)?
The solubility (mole fraction) was 0.0604.

What about the solubility (mole fraction) (in n-butyl acetate, 293.15 K) of the same molecule?
Its solubility (mole fraction) is 0.0678.

What about the solubility (mole fraction) (in n-butyl acetate, 298.15 K) of the same molecule?
Its solubility (mole fraction) is 0.0749.

And the solubility (mole fraction) (in n-butyl acetate, 303.15 K)?
The solubility (mole fraction) was 0.0832.

What about the solubility (mole fraction) (in n-butyl acetate, 308.15 K) of the same molecule?
The solubility (mole fraction) was 0.0931.

And the solubility (mole fraction) (in n-butyl acetate, 313.15 K)?
Its solubility (mole fraction) is 0.106.

And the solubility (mole fraction) (in n-butyl acetate, 318.15 K)?
Its solubility (mole fraction) is 0.12.

What about the solubility (mole fraction) (in n-butyl acetate, 323.15 K) of the same molecule?
Its solubility (mole fraction) is 0.136.

What about the solubility (mole fraction) (in n-pentanol, 278.15 K) of the same molecule?
The solubility (mole fraction) was 0.0537.

And the solubility (mole fraction) (in n-pentanol, 283.15 K)?
The solubility (mole fraction) was 0.0701.

What about the solubility (mole fraction) (in n-pentanol, 288.15 K) of the same molecule?
The solubility (mole fraction) was 0.0866.

And the solubility (mole fraction) (in n-pentanol, 293.15 K)?
The solubility (mole fraction) was 0.107.

And the solubility (mole fraction) (in n-pentanol, 298.15 K)?
The solubility (mole fraction) was 0.131.

What about the solubility (mole fraction) (in n-pentanol, 303.15 K) of the same molecule?
The solubility (mole fraction) was 0.155.

What about the solubility (mole fraction) (in n-pentanol, 308.15 K) of the same molecule?
The solubility (mole fraction) was 0.182.

And the solubility (mole fraction) (in n-pentanol, 313.15 K)?
Its solubility (mole fraction) is 0.211.

What about the solubility (mole fraction) (in n-pentanol, 318.15 K) of the same molecule?
Its solubility (mole fraction) is 0.243.

What about the solubility (mole fraction) (in n-pentanol, 323.15 K) of the same molecule?
Its solubility (mole fraction) is 0.281.

And the solubility (mole fraction) (in n-propanol, 278.15 K)?
The solubility (mole fraction) was 0.0486.

What about the solubility (mole fraction) (in n-propanol, 283.15 K) of the same molecule?
The solubility (mole fraction) was 0.0602.

What about the solubility (mole fraction) (in n-propanol, 288.15 K) of the same molecule?
Its solubility (mole fraction) is 0.0731.

What about the solubility (mole fraction) (in n-propanol, 293.15 K) of the same molecule?
Its solubility (mole fraction) is 0.0911.

What about the solubility (mole fraction) (in n-propanol, 298.15 K) of the same molecule?
The solubility (mole fraction) was 0.11.

And the solubility (mole fraction) (in n-propanol, 303.15 K)?
Its solubility (mole fraction) is 0.131.

What about the solubility (mole fraction) (in n-propanol, 308.15 K) of the same molecule?
The solubility (mole fraction) was 0.152.

And the solubility (mole fraction) (in n-propanol, 313.15 K)?
Its solubility (mole fraction) is 0.179.

What about the solubility (mole fraction) (in n-propanol, 318.15 K) of the same molecule?
The solubility (mole fraction) was 0.207.

What about the solubility (mole fraction) (in n-propanol, 323.15 K) of the same molecule?
Its solubility (mole fraction) is 0.236.

What about the solubility (mole fraction) (in sec-butanol, 278.15 K) of the same molecule?
Its solubility (mole fraction) is 0.043.

And the solubility (mole fraction) (in sec-butanol, 283.15 K)?
Its solubility (mole fraction) is 0.0535.

And the solubility (mole fraction) (in sec-butanol, 288.15 K)?
Its solubility (mole fraction) is 0.0665.

What about the solubility (mole fraction) (in sec-butanol, 293.15 K) of the same molecule?
The solubility (mole fraction) was 0.0809.

And the solubility (mole fraction) (in sec-butanol, 298.15 K)?
The solubility (mole fraction) was 0.098.

What about the solubility (mole fraction) (in sec-butanol, 303.15 K) of the same molecule?
The solubility (mole fraction) was 0.117.

And the solubility (mole fraction) (in sec-butanol, 308.15 K)?
The solubility (mole fraction) was 0.139.

And the solubility (mole fraction) (in sec-butanol, 313.15 K)?
The solubility (mole fraction) was 0.162.

What about the solubility (mole fraction) (in sec-butanol, 318.15 K) of the same molecule?
The solubility (mole fraction) was 0.186.

And the solubility (mole fraction) (in sec-butanol, 323.15 K)?
Its solubility (mole fraction) is 0.213.
